This note sets out measurements from article PMC6212536, “Allosteric Site Inhibitor Disrupting Auto-Processing of Malarial Cysteine Proteases” (Scientific Reports, 2018).

For assay [1], the target named is pro-falcipain-3 (pro-FP3) (Plasmodium falciparum, UniProt Q8IIL0). As to the kind of experiment: SPR, immobilized pro-enzyme; auto-processing also blocked. Format: binding. For orientation: Surface plasmon resonance follows binding to a sensor surface in real time, without labels.
For assay [2], the target named is T1, pro-falcipain-2 (pro-FP2) (Plasmodium falciparum, UniProt Q8I6U4).
T1 construct: gene FP2A
T1 sequence (Q8I6U4 208-484): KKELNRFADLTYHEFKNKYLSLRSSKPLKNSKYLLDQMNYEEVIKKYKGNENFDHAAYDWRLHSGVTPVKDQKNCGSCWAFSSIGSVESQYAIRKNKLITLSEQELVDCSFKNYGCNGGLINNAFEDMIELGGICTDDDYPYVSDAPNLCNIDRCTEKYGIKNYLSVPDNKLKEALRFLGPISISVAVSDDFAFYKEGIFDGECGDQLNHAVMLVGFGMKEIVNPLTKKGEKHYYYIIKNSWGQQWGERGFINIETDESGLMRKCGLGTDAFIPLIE
The description is as above. Format: binding.

Chain of pro-falcipain-3 (pro-FP3) (Q8IIL0 57-492): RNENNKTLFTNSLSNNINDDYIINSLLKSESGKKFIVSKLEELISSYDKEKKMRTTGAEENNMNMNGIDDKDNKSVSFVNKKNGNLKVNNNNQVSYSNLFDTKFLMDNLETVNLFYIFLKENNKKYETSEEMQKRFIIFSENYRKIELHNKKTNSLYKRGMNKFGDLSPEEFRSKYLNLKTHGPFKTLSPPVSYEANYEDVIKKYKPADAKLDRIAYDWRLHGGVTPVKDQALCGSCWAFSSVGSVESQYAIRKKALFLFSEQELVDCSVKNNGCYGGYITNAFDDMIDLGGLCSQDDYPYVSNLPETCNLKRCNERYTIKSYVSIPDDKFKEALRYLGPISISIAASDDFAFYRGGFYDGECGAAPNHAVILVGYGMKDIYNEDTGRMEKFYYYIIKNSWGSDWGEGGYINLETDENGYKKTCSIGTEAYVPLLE

As usually defined, the Kd is the constant that tells how readily two partners part at equilibrium. Low values mean tighter binding, high ones weaker binding. As for `O=C(CC1(CNC(=O)c2cnccn2)CCCCC1)NNC(=O)c1cnccn1` [NA-01], the dissociation constant (Kd) in assay [1] worked out at 5.14 ± 0.07 nM; in assay [2] it was 1.72 ± 0.03 nM.
For `O=C(CC1(NC(=O)c2cnccn2)CCCCC1)NNC(=O)c1cnccn1` [NA-03] the same measures were 2 ± 0.04 nM and 1.67 ± 0.01 nM.
